Data: BindingDB's records for doi:10.1124/jpet.108.143271 (Bristol-Myers Squibb, 2008)
Substitutions are numbered along the chain they refer to.

Columns and labels:
[1] = target: T1, Peroxisome proliferator-activated receptor alpha (Rattus norvegicus, UniProt P37230)
T1 sequence (P37230 whole entry): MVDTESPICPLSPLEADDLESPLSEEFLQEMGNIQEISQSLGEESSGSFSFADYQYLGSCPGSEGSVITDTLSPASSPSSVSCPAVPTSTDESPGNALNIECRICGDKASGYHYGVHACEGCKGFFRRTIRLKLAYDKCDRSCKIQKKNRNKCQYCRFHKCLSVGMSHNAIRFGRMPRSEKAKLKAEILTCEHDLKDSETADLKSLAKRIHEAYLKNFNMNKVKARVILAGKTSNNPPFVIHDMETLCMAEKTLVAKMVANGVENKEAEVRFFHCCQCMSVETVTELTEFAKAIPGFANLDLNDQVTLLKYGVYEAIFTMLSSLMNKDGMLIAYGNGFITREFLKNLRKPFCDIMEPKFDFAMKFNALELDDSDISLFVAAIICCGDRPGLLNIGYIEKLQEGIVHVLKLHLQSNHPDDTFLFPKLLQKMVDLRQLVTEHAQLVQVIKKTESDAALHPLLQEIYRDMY

[2] = target: T2, Peroxisome proliferator-activated receptor alpha (Homo sapiens, UniProt Q07869); experiment: PPAR alpha Fluorescence Polarization Assay; conditions: pH 8; 22 °C
T2 sequence (Q07869 whole entry): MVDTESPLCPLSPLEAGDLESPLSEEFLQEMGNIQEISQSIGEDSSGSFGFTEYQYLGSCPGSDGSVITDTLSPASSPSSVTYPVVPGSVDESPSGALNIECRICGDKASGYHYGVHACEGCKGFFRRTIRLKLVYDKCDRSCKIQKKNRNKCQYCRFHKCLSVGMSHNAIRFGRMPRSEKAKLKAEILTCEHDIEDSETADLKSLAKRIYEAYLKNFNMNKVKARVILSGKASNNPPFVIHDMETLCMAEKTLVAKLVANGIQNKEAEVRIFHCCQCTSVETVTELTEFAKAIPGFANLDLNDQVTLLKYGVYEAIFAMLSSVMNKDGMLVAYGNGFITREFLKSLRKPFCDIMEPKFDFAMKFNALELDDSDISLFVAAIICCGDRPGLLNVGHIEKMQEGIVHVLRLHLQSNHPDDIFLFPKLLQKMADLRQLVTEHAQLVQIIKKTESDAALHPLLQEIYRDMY

[3] = target: T3, Peroxisome proliferator-activated receptor gamma (Homo sapiens, UniProt P37231); experiment: PPAR gamma Fluorescence Polarization Assay; conditions: pH 8; 22 °C
T3 sequence (P37231 whole entry): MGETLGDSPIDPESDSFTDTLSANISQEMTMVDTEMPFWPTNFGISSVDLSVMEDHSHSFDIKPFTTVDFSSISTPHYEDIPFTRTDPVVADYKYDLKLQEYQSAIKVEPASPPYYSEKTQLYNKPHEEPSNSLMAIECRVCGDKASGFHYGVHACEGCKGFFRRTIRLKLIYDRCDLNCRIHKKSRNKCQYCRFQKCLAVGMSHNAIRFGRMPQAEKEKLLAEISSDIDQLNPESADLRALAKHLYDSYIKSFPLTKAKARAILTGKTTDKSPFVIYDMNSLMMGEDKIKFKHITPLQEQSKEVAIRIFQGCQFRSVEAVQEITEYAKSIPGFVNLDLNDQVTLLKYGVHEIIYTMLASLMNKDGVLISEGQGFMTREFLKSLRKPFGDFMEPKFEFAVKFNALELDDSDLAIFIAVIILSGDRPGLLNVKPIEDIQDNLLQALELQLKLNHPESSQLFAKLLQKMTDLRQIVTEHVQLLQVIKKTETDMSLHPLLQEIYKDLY

[4] = target: T4, Peroxisome proliferator-activated receptor delta (Homo sapiens, UniProt Q03181)
T4 sequence (Q03181 whole entry): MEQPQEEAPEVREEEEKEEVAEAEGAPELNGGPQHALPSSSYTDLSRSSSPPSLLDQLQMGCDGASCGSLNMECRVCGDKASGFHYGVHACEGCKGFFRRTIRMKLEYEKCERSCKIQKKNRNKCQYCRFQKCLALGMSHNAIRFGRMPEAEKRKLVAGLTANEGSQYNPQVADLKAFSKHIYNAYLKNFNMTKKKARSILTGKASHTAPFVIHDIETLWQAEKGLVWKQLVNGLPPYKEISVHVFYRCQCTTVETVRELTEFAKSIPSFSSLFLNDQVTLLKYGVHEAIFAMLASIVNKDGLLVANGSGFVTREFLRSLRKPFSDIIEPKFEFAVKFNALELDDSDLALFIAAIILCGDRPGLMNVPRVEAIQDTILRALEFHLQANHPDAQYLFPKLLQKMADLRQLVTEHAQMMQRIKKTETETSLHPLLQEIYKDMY

[5] = target: T5, Peroxisome proliferator-activated receptor alpha (Mesocricetus auratus, UniProt Q7TNH1)
T5 sequence (Q7TNH1 whole entry): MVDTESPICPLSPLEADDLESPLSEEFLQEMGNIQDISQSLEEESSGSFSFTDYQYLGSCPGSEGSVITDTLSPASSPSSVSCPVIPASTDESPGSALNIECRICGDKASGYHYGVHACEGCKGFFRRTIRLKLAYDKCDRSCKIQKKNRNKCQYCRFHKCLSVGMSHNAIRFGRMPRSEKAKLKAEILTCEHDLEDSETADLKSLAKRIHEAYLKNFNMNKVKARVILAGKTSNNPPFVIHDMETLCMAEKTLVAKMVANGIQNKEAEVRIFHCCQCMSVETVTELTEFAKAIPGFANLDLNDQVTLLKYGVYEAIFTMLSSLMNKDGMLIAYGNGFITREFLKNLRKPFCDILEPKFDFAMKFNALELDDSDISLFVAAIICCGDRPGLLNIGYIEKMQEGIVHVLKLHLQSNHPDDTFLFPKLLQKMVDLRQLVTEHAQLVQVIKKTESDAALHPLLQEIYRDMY

[6] = target: T6, Peroxisome proliferator-activated receptor alpha (Mus musculus, UniProt P23204)
T6 sequence (P23204 whole entry): T1 sequence (P37230 whole entry) with L41I, S50G, A85V, V86I, T88A, N96S, A135V, A207G, N265D

EC50 [1]	IC50 [2]	IC50 [3]	EC50 [4]	EC50 [5]	EC50 [6]	EC50 [2]	Structure (SMILES)
0.317 µM	–	–	–	–	–	–	COC(=O)N(CC(=O)O)Cc1cccc(OCc2nc(-c3ccc(Cl)cc3)oc2C)c1 [2-{[(3-{[2-(4-chlorophenyl)-5-methyl-1,3-oxazol-4-yl]methoxy}phenyl)methyl](methoxycarbonyl)amino}acetic acid]
0.123 µM	0.097 µM	> 15 µM	> 25 µM	0.178 µM	0.145 µM	–	COC(=O)N(CC(=O)O)Cc1cc(OCc2nc(-c3ccc(Cl)cc3)oc2C)ccc1F [2-{[(5-{[2-(4-chlorophenyl)-5-methyl-1,3-oxazol-4-yl]methoxy}-2-fluorophenyl)methyl](methoxycarbonyl)amino}acetic acid]
17.7 µM	> 98.4 µM	–	–	28.7 µM	18.5 µM	11.6 µM	CC(Oc1ccc(Oc2ccc(Cl)cc2)cc1)C(=O)O (configuration not stated) [Clofop]
